This assay concerns the target T1, HIV-1 integrase (Human immunodeficiency virus type 1 group M subtype B, UniProt P04585).
T1 construct: pre-incubated with 15 pmol integrase (IN) at 37 °C
In words: HIV-1 integrase strand transfer inhibition assay (microplate, magnetic beads). The class given is biochemical, human immunodeficiency virus-1 (HIV-1). As to conditions: for IC50: strand transfer reaction, microplate screening method, positive control baicalein, read-out: IC50, inhibition activity against HIV-1 integrase; for HIV-1 integrase inhibition activity (in words): qualitative summary of the integrase assay. How it is done: The assays were performed in a 96-well microplate (Corning, New York, NY, USA) in a final volume of 50 μL. The wells were washed once with the reaction buffer (25 mM/L PIPES, pH 7.0, 10 mM/L β-mercaptoethanol, 5% (w/v) glycerol, 0.1 g/L bovin serum albumin (BSA), and 10 mM/L MnCl2). The compounds were diluted with dimethyl sulfoxide (DMSO) to a final concentration of 10% DMSO into the reaction volume (v/v) and pre-incubated with 15 pmol integrase (IN) at 37 °C in the reaction buffer in the absence of MnCl2 (10 mM/L) for 10 min. Subsequently, 1.5 pM donor DNA and 15 pM target DNA were added and the reaction was initiated. After incubation for 1 h at 37 °C, […] magnetic particles (6.7 × 10^8 beads/mL) and 51.5 μL binding buffer (10 mM/L Tris–HCl, pH 7.6, 2 M/LNaCl, 20 mM/L ethylene diamine tetraacetic acid (EDTA), and 0.1% [w/v] Tween 20) were added and incubated at 20 °C for 15 min. Then the wells holding the mixture were placed in a magnetic concentrator, the supernatant was discarded, and the wells were washed 3 times with phosphate buffered saline (PBS) containing 0.1% Tween20(PBST). Subsequently, 100 μL of 1:5000 diluted alkaline phosphatase (AP) conjugate anti-DIG antibody was added and incubated for 30 min at 37 °C. Finally, the wells were washed 3 times with PBST and the magnetic beads were transferred into fresh wells; 100 μL P-nitrophenyl phosphate (P-NPP) substrate (0.1 M/L Na2CO3, pH 9.5, 6.7 mM/L P-NPP, and 2 mM/L MgCl2) was added. The plates were read at 405 nm with a Model 680 microplate reader (Bio-Rad, Hercules, CA, USA). In the assay, baicalein was used as the positive control.
The IC50 values of the samples were calculated based on the assay results after curve fitting according to a non-linear regression.

Take `O=c1cc(-c2ccccc2)oc2cc(O)c(O)c(O)c12` [baicalein, reference compound]: the IC50 (commonly the concentration that inhibits the measured activity by half) was found to be 1.37 µM.

Take `COc1cc([C@@H]2OC[C@@]3(O)[C@@H]2CO[C@H]3c2ccc(O)c(OC)c2)ccc1O` [Compound 2, (+)-8-hydroxy-7,7'-bis-epi-pinoresinol]: the “HIV-1 integrase inhibition activity (in words)” value is “weak HIV-1 integrase inhibitory activities” and the half-inhibitory concentration (IC50) was 61.7 µM.

Consider `C=CC1C(OC2OC(CO)C(O)C(O)C2O)OC=C(C(=O)OC2CC3C(C(=O)OC)=COC(OC4OC(CO)C(O)C(O)C4O)C3C2C)C1CC1OC(C)C(C)O1` (stereo not drawn) [Compound 7, dipsanoside M], for which the “HIV-1 integrase inhibition activity (in words)” value was “weak HIV-1 integrase inhibitory activities” and the IC50 was found to be 84 µM. Taken in the same sequence, the figures for `C=CC1C(OC2OC(CO)C(O)C(O)C2O)OC=C(C(=O)OC2CC3C(C(=O)OC)=COC(OC4OC(CO)C(O)C(O)C4O)C3C2C)C1CC1OC(C)C(C)O1` (stereo not drawn) [Compound 8, dipsanosides N] were “weak HIV-1 integrase inhibitory activities” and 92.7 µM. The matching figures for `COc1cc([C@@H]2OC[C@@]3(O)[C@@H]2CO[C@H]3c2cc(OC)c(O)c(OC)c2)ccc1O` [Compound 1, (+)-8-hydroxy-7,7'-bis-epi-fraxiresinol]: “weak HIV-1 integrase inhibitory activities” and 53.3 µM.

(Values after paper PMC6272778, “New Lignans and Iridoid Glycosides from Dipsacus asper Wall” (Molecules, 2015).)
